pIC50: −log10 of the molar value. Several values for one entry are separate records, joined by “and”; a condition that tells them apart may be missing. Equal entries are not always repeated.
Tests used:
[1] = molecular target: T1, isolated human 20S proteasome, C-L activity (Homo sapiens, UniProt P28072); assay: Proteasome inhibition assay in isolated human 20S proteasomes (Proteasome-Glo), C-L activity; type: biochemical; conditions: mean ± SD
T1 construct: human purified erythrocyte-derived 20S proteasome; purchased Enzo Life Sciences, Inc; host or cells: human erythrocytes (natural source)
From the text: (§1) In this assay, the peptide substrates are bound to aminoluciferin (Suc-LLVY-AML for CT-L activity, Z-nLPnLD-AML for C-L, and Z-LRR-AML for T-L), leading the cleavage of these substrates by the proteasome to the release of free aminoluciferin, which is the substrate of the buffer-contained luciferase.
(§2) To evaluate human purified erythrocyte-derived 20S proteasome inhibitory activity of the chosen compounds, the Proteasome-Glo™ 3-substrate system (Promega Corporation, Madison, WI, USA) was employed. The Proteasome-Glo™ reagents of the three proteolytic activities were prepared according to the manufacturer’s instructions, aliquoted, and stored at either −20 °C or 4 °C, avoiding freezing–thaw cycles. […] The purified 20S proteasome (Enzo Life Sciences, Inc., Farmingdale, NY, USA) was diluted in HEPES buffer 10 mM, pH 7.4, to a concentration experimentally adjusted to the signal/noise ratio obtained with each particular lot of Proteasome-Glo™ reagent, in order to have a good compromise between sensitivity and linear response. […] All assays were performed in white-walled multiwell plates (Thermo Scientific™ Sterilin™ White Microtiter™ plates, Thermo Fisher Scientific, Paisley, UK) in duplicates. The proteasome solution (25 μL) was added to each well first, then the diluted solutions of the assayed compounds (25 μL), and lastly the Proteasome-Glo™ Reagent (50 μL). […] Reagents were added to the plate well on ice, and the plate was then transferred to the plate luminometer (SpectraMax®, Molecular Devices, LLC, San Jose, CA, USA) set at 37 °C, gently mixed for 30 s, and the measurements were immediately started in kinetic mode, with data collected every 5 min for at least 60 min.
(§3) All compounds were dissolved in DMSO at a concentration of 10 mM and stored at −20 °C or 4 °C. Solutions of the test compounds were prepared at their adequate dilutions in 10 mM HEPES buffer pH 7.6 before each experiment.
(§4) To calculate the proteasome activity over time, the value of mean relative luminescence units (RLU) of blank wells at each respective time point was subtracted, and then the ratio between mean RLU of the sample and mean RLU of the positive control wells was calculated for each time point and expressed as percentage.

[2] = molecular target: T2, isolated human 20S proteasome, T-L activity (Homo sapiens, UniProt P49720+Q99436); assay: Proteasome inhibition assay in isolated human 20S proteasomes (Proteasome-Glo), T-L activity; type: biochemical; conditions: for inhibition at 10 µM: read-out: percentage of proteasome inhibition, T-L, isolated 20S proteasome; for percentage of proteasome inhibition, T-L, isolated human 20S proteasome: at 100 µM, Table 1 legend: bortezomib positive control 10 µM; for pIC50: mean ± SD
T2 construct: human purified erythrocyte-derived 20S proteasome; purchased Enzo Life Sciences, Inc; host or cells: human erythrocytes (natural source)
From the text: as §1, §2, §3, §4

[3] = Cell viability, MTT assay, HT-29; type: cell-based, human; conditions: human, HT-29 colorectal carcinoma cells, read-out: percentage of cell viability, MTT, HT-29; for viability at 72 h, 10 µM: at 10 µM; for viability at 72 h, 100 µM: at 100 µM
Experimental: (§5) Whenever possible, additional concentrations were tested and IC50 values were determined.
(§6) Human leukemia Jurkat E6.1 T-cell line and K562-cell line were originally obtained from ATCC Collections (Manassas, VA, USA); human HT-29 and HCT116 colorectal carcinoma-cell lines were obtained from ECACC (Porton Down, Porton, UK). Cells were passaged for less than 6 months after and routinely tested for mycoplasma contamination using Mycoalert detection kit (Lonza, Basel, Switzerland). Jurkat, K562, and HT-29 cells were maintained in Roswell Park Memorial Institute (RPMI) 1640 with GlutaMAX™, supplemented with 1% antibiotic mixture (100 µg/mL streptomycin and 100 U/mL penicillin) and 10% heat-inactivated foetal bovine serum (FBS) (all from Gibco, Thermo Fisher Scientific, Paisley, UK). HCT116 cells were maintained in Dulbecco’s Modified Eagle Medium (DMEM) with GlutaMAX™, supplemented with 1% antibiotic mixture (100 µg/mL streptomycin and 100 U/mL penicillin) and 10% heat-inactivated FBS (all from Gibco, Thermo Fisher Scientific, Paisley, UK). Incubation was performed at 37 °C in a 5% CO2 atmosphere. Cells were routinely passaged every 2 or 3 days at 70–90% confluence; TrypLE Express (Gibco, Thermo Fisher Scientific, Paisley, UK) was used as dissociation agent for adherent cells. Trypan blue (Gibco, Thermo Fisher Scientific, Paisley, UK) was used to assess cell viability using the dye exclusion test.
(§7) To assess cell viability, the MTT assay was performed. Jurkat/K562/HT-29/HCT116 cell lines were seeded in triplicate (10,000 cells/well) in 96-well plates with 50 µL of complete medium and incubated at 37 °C, 5% CO2 for 24 h to allow the cells to adhere to the plate (in the case of adherent cells). […] Untreated cells seeded in triplicate were used as control. The blank was performed in triplicate with 100 µL of culture medium. The cells were incubated with the compounds, in triplicate, in 100 µL of total volume, at 37 °C, 5% CO2 for 72 h. […] In suspension cells (Jurkat), 25 µL of MTT were directly added to each well and, after 3 h 30 m of incubation, 100 µL of DMSO were added to solubilize the formazan crystals; in adherent cells (HT-29 and HCT116), the culture medium was removed, 25 µL of MTT were added to each well and, after 3 h 30 m of incubation, upon MTT removal, 100 µL of DMSO were added to solubilize the formazan crystals. After 15 min, the samples absorbance was measured at 570 nm and the percentage of cell viability was determined.

[4] = molecular target: T3, 20S proteasome in Jurkat cell lysates, C-L activity (Homo sapiens, UniProt P28072); assay: Proteasome inhibition assay in cell lysates, Jurkat, C-L; conditions: for inhibition at 10 µM: read-out: percentage of proteasome inhibition, C-L, cell lysates Jurkat, at 10 µM; for inhibition at 100 µM: read-out: percentage of proteasome inhibition, C-L, cell lysates Jurkat, at 100 µM
T3 sequence (P28072 35-239 limits assumed): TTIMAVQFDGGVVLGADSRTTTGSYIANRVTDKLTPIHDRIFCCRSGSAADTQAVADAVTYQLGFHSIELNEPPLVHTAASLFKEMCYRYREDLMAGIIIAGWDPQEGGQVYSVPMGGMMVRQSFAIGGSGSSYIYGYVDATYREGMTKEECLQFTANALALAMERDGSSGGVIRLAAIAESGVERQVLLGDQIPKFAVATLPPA
T3 sequence (Q99436 44-277 partner): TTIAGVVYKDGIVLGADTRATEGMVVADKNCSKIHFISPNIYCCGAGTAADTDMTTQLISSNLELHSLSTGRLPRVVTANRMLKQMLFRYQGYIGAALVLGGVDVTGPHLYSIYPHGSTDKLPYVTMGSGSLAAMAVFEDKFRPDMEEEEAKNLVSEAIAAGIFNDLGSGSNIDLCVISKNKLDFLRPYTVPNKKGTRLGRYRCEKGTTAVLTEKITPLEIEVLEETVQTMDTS
Experimental: Cells were obtained from several cultured cell lines: Jurkat, K562, HT-29, and HCT116. Pellets with 20 × 10^6 cells were prepared and washed with cold sterile phosphate buffered saline (PBS), 1×, pH 7.4 (Gibco, Thermo Fisher Scientific, Paisley, UK). […] Cells were resuspended in buffer containing 50 mM TRIS-HCl pH 7.4 (Nzytech, Lisboa, Portugal), 5 mM MgCl2 (≥98% purity, Merck, Hamburg, Germany), 1 mM DTT (Merck, Hamburg, Germany), 2 mM ATP (≥98% purity, Enzo Life Sciences Inc., Farmingdale, NY, USA), and 250 mM saccharose (Merck, Hamburg, Germany). Glass beads (Merck, Hamburg, Germany) equivalent to the volume of the cell suspension were added, and the mixture was vortexed for 2 min at 4 °C. Beads and cell debris were removed using 5 min centrifugation at 1000× g and 4 °C, followed by 20 min of centrifugation at 10,000× g at 4 °C. Cell lysates containing proteasomes were resuspended in “activity buffer” [50 mM TRIS-HCl (pH 7.4), 5 mM MgCl2, 1 mM DTT, 2 mM ATP (≥98% purity, Enzo Life Sciences Inc., Farmingdale, NY, USA), and 500 µM EDTA (≥98% purity, Merck, Hamburg, Germany)]. Protein concentration was determined using the Pierce™ BCA protocol (Thermo Fisher Scientific, Rockford, IL, USA). […] DMSO was added in an equal volume as used for the untreated compounds as a way to assess/control its influence in the assay. Untreated cells were used as control. In each well of a 96-well plate, 25 µL of lysate were seeded in duplicate with 25 µL of the compound to test; in the control, 25 µL of activity buffer were added to the 25 µL of lysate. A blank (50 µL of activity buffer) was added to the wells in quadruplicate. Cell lysates, pre-treated or not with different concentrations of the test compounds, were incubated for 30 min at 37 °C. […] Stock solutions (10 mM) of each substrate were prepared in DMSO, diluted in activity buffer, and 50 µL were added to all wells (final concentration of each substrate = 100 µM), followed by an incubation at 37 °C for 60 min. Samples fluorescence was measured at an excitation wavelength of 360 nm and emission of 465 nm; the fluorescence measures were performed using the GloMax-Multi + Detection System (Promega Corp., Madison, WI, USA). Activity was evaluated in fluorescence units, after being converted to percentage of proteasome inhibition and, whenever possible, expressed as IC50 by plotting the inhibition data of each compound at different concentrations against the log of the concentration of the inhibitor, using the GraphPad Prism software version 7. At least eight different concentrations of the test compounds were used.

[5] = Cell viability, MTT assay, K562; type: cell-based, human; conditions: human, K562 leukemia cells, read-out: percentage of cell viability, MTT, K562; for viability at 72 h, 10 µM: at 10 µM; for viability at 72 h, 100 µM: at 100 µM
Experimental: as §5, §6, §7

[6] = molecular target: T4, 20S proteasome in K562 cell lysates, C-L activity (Homo sapiens, UniProt P28072); assay: Proteasome inhibition assay in cell lysates, K562, C-L; conditions: for inhibition at 10 µM: read-out: percentage of proteasome inhibition, C-L, cell lysates K562, at 10 µM; for inhibition at 100 µM: read-out: percentage of proteasome inhibition, C-L, cell lysates K562, at 100 µM
T4 sequence (P28072 35-239 limits assumed): T3 sequence (P28072 35-239 limits assumed)
T4 sequence (Q99436 44-277 partner): T3 sequence (Q99436 44-277 partner)
Experimental: Cells were obtained from several cultured cell lines: Jurkat, K562, HT-29, and HCT116. Pellets with 20 × 10^6 cells were prepared and washed with cold sterile phosphate buffered saline (PBS), 1×, pH 7.4 (Gibco, Thermo Fisher Scientific, Paisley, UK). The preparation of the lysates from several cell lines was performed based on the methodology described by Gavioli et al. [67]. Cells were resuspended in buffer containing 50 mM TRIS-HCl pH 7.4 (Nzytech, Lisboa, Portugal), 5 mM MgCl2 (≥98% purity, Merck, Hamburg, Germany), 1 mM DTT (Merck, Hamburg, Germany), 2 mM ATP (≥98% purity, Enzo Life Sciences Inc., Farmingdale, NY, USA), and 250 mM saccharose (Merck, Hamburg, Germany). Glass beads (Merck, Hamburg, Germany) equivalent to the volume of the cell suspension were added, and the mixture was vortexed for 2 min at 4 °C. Beads and cell debris were removed using 5 min centrifugation at 1000× g and 4 °C, followed by 20 min of centrifugation at 10,000× g at 4 °C. Cell lysates containing proteasomes were resuspended in “activity buffer” [50 mM TRIS-HCl (pH 7.4), 5 mM MgCl2, 1 mM DTT, 2 mM ATP (≥98% purity, Enzo Life Sciences Inc., Farmingdale, NY, USA), and 500 µM EDTA (≥98% purity, Merck, Hamburg, Germany)]. Protein concentration was determined using the Pierce™ BCA protocol (Thermo Fisher Scientific, Rockford, IL, USA). […] DMSO was added in an equal volume as used for the untreated compounds as a way to assess/control its influence in the assay. Untreated cells were used as control. In each well of a 96-well plate, 25 µL of lysate were seeded in duplicate with 25 µL of the compound to test; in the control, 25 µL of activity buffer were added to the 25 µL of lysate. A blank (50 µL of activity buffer) was added to the wells in quadruplicate. Cell lysates, pre-treated or not with different concentrations of the test compounds, were incubated for 30 min at 37 °C. […] Stock solutions (10 mM) of each substrate were prepared in DMSO, diluted in activity buffer, and 50 µL were added to all wells (final concentration of each substrate = 100 µM), followed by an incubation at 37 °C for 60 min. Samples fluorescence was measured at an excitation wavelength of 360 nm and emission of 465 nm; the fluorescence measures were performed using the GloMax-Multi + Detection System (Promega Corp., Madison, WI, USA). Activity was evaluated in fluorescence units, after being converted to percentage of proteasome inhibition and, whenever possible, expressed as IC50 by plotting the inhibition data of each compound at different concentrations against the log of the concentration of the inhibitor, using the GraphPad Prism software version 7. At least eight different concentrations of the test compounds were used.

[7] = at 100 µM, Table 2 legend: bortezomib 10 µM
[8] = Table 2 legend: bortezomib 10 µM

SMILES	pIC50 [1]	inhibition at 10 µM [2]	percentage of proteasome inhibition, T-L, isolated human 20S proteasome [2]	pIC50 [2]	viability at 72 h, 10 µM [3]	viability at 72 h, 100 µM [3]	pIC50 [4]	percentage of proteasome inhibition, C-L, cell lysates Jurkat [4, 7]	inhibition at 10 µM [4]	inhibition at 100 µM [4, 8]	viability at 72 h, 10 µM [5]	viability at 72 h, 100 µM [5]	percentage of proteasome inhibition, C-L, cell lysates K562 [6, 7]	inhibition at 10 µM [6]	inhibition at 100 µM [6, 8]	percentage of proteasome inhibition, C-L, cell lysates K562 ([6]; at 10 µM)	percentage of proteasome inhibition, C-L, cell lysates Jurkat ([4]; at 10 µM)
C#CCCN1CCN(c2ccc(-n3c(=O)ccc4cnc5ccc(-c6ccc(N)nc6)cc5c43)cc2C(F)(F)F)CC1 [Compound 4, 9-(6-Aminopyridin-3-yl)-1-(4-(4-(but-3-yn-1-yl)piperazin-1-yl)-3-(trifluoromethyl)phenyl)benzo[h][1,6]naphthyridin-2(1H)-one]	4.39	0%	73.95% and 74%	4.32	94.1%	34.3%	4.57	99%	8.16%	98.9%	–	–	–	–	–	–	–
Cc1ccc2ccccc2c1CSc1ncnc2c1ncn2C1OC(CO)C(O)C1O (stereo not shown) [Compound 1]	–	4.43%	51.65% and 52%	–	96.7%	23.3%	–	19%	2.27%	19.4%	93.1%	18.2%	28%	0%	28.2%	–	–
O=C1c2ccccc2C(=O)c2c(Nc3ccc(S(=O)(=O)N(CCO)CCO)cc3)ccc(O)c21 [Compound 2]	5.62	0%	97.00%	4.59	79.9%	65.4%	4.37	74%	26.9%	73.5%	86.3%	–	63%	0%	63.2%	–	–
Cc1ccc(/C(=N/NS(=O)(=O)c2ccc([N+](=O)[O-])cc2)Sc2cc(Cl)c(C)cc2S(N)(=O)=O)cc1 [Compound 3]	4.29	8.8%	95.30% and 95%	4.56	100%	100%	–	25%	0%	25.4%	100%	100%	39%	14.2%	38.8%	–	–
CC(C)C[C@H](NC(=O)[C@H](Cc1ccccc1)NC(=O)c1cnccn1)B(O)O [Bortezomib, bortezomib, reference compound]	–	3.2%	33.58% and 34%	–	0%	0%	–	94.22% and 94%	–	–	0%	0%	97.19% and 97%	–	–	94.99%	92.00%
CC(C)c1nc(CN(C)C(=O)N[C@@H](CCN2CCOCC2)C(=O)N[C@H](CC[C@H](Cc2ccccc2)NC(=O)OCc2cncs2)Cc2ccccc2)cs1 [Compound 5, cobicistat, reference compound]	–	5.37%	5.35% and 5%	–	98.3%	25.4%	–	36%	0%	36.2%	–	–	–	–	–	–	–

— PMC10458307, “New Scaffolds of Proteasome Inhibitors: Boosting Anticancer Potential by Exploiting the Synergy of In Silico and In Vitro Methodologies” (Pharmaceuticals, 2023)
